Experimental findings from PMC12439760 (Bioorganic & medicinal chemistry, 2025) are described below.

One may read the EC50 as the concentration giving half of the maximal effect. Broadly, the half-life is the time needed for the level to fall by half in the phase considered. As a reminder, the microsomal CLint is the rate of metabolic loss divided by the concentration. As a reminder, the Ki is the dissociation constant of the complex between target and ligand, obtained from inhibition or displacement. Lower therefore signals higher affinity.

Several values for one entry are separate records, joined by “and”; a condition that tells them apart may be missing. Equal values may be shown once.

Data set [1] has as its target T1, hCB1 receptor (Homo sapiens, UniProt P21554). In words: hCB1 Gαq16-coupled calcium mobilization assay in CHO-K1 cells. To be noted: hCB1 Ca EC50, CHO cells expressing hCB1 and Gαq16, calcium mobilization. The format is cell-based.
A further data set can be described thus: Human liver microsome. The format is in vitro ADME. As to conditions: pooled human liver microsomes, pH 7.4. For orientation: Liver microsomes are vesicles of endoplasmic reticulum, rich in cytochrome P450 enzymes.
The target in data set [2] is T2, hCB2 receptor (Homo sapiens, UniProt P34972). The experiment in a line: [3H]CP55940 radioligand displacement, CHO cell membranes overexpressing hCB2. The class given is binding.
T2 sequence (P34972 whole entry): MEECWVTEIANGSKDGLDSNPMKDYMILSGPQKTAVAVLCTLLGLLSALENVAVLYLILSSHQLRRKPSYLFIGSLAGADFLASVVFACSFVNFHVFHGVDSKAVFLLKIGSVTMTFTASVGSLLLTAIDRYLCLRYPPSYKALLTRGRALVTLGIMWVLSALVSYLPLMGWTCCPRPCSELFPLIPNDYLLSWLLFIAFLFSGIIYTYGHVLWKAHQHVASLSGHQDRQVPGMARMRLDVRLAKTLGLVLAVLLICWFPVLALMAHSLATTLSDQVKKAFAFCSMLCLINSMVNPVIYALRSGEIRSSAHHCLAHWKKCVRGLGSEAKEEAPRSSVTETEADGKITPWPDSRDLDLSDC
The target in data set [3] is T1, hCB1 receptor. In words: [3H]CP55940 radioligand displacement, CHO cell membranes overexpressing hCB1. The format is binding. For orientation: In a radioligand displacement assay an active substance lowers the binding of a labelled ligand.
Data set [4] has as its target T2, hCB2 receptor. In words: hCB2 Gαq16-coupled calcium mobilization assay in CHO-K1 cells. The class given is cell-based. As to conditions: hCB2 Ca EC50, CHO cells expressing hCB2 and Gαq16, calcium mobilization. Background: Calcium flux is commonly read through the fluorescence of an indicator in the cells.
For data set [5], the system named is CYP3A4, CYP1A2 and CYP2B6. The experiment in a line: Isoform-specific CYP induction assays in HepaRG cells, overall profile. The format is cell-based, human. To be noted: data not shown.
A short description of data set [6]: Mouse pharmacokinetic study. The class given is in vivo, C57BL/6 mice. As to conditions: mice, 3 mg/kg po, data not shown.

T1 sequence (P21554 whole entry): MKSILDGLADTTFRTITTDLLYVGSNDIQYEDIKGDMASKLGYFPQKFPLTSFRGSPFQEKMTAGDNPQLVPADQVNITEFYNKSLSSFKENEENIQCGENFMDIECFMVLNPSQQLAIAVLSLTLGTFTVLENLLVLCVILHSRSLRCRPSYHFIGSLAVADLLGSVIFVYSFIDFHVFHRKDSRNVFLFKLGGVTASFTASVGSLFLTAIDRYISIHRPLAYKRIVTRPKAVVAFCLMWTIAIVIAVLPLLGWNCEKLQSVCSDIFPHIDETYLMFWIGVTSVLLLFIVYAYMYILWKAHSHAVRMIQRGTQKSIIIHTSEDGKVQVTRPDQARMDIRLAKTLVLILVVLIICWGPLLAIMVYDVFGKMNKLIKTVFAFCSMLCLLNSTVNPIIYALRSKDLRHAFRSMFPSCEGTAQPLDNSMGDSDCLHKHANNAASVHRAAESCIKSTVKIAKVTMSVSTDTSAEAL

Consider `CC(C)(NC(=O)c1nn(Cc2ccc(F)cc2)c2ccccc12)C(=O)N1CCC[C@H]1C(N)=O` [Compound 14, N-{1-[(2S)-2-Carbamoylpyrrolidin-1-yl]-2-methyl-1-oxopropan-2-yl}-1-[(4-fluorophenyl)methyl]-1H-indazole-3-carboxamide], for which the EC50 was ~20 nM and 20 nM on hCB1 receptor [1]; 16 ± 1 nM on hCB2 receptor [4]. In “Human liver microsome”, this compound came in with a half-life at 1 μM of 10.2 h. Besides, the microsomal CLint at 1 μM in the data set “Human liver microsome” was 2 µL/min/mg. The Ki is 6 nM on hCB2 receptor [2] and 4 nM at hCB1 receptor [3].
For the compound `CC(C)(NC(=O)c1nn(CC2CCC(F)(F)CC2)c2ccccc12)c1cccc(C(N)=O)c1` [Compound 50, N-[2-(3-Carbamoylphenyl)propan-2-yl]-1-[(4,4-difluorocyclohexyl)methyl]-1H-indazole-3-carboxamide], the “CYP induction profile (in words)” value in data set [5] is “profile similar to that of 45”. Besides, the plasma levels in data set [6] is listed as below 30 ng/mL. The same compound gave a half-life at 1 μM in “Human liver microsome” above 3.33 h. Further, the microsomal CLint at 1 μM in the data set “Human liver microsome” is below 5 µL/min/mg. Moreover, the Ki amounted to 3 nM on hCB2 receptor [2] and 2.5 nM on hCB1 receptor [3].
Turning to `CC(C)(NC(=O)c1nn(Cc2ccc(F)cc2)c2ccccc12)C1CCCN(CC(N)=O)C1` (stereo not drawn) [Compound 34, N-{2-[1-(Carbamoylmethyl)piperidin-3-yl]propan-2-yl}-1-[(4-fluorophenyl)methyl]-1H-indazole-3-carboxamide], the EC50 worked out at 369 ± 57 nM at hCB1 receptor [1] and 28 ± 13 nM on hCB2 receptor [4]. This compound had a half-life at 1 μM in “Human liver microsome” below 0.333 h.
Consider `CC(C)(NC(=O)c1nn(CCCCCF)c2ccccc12)c1cccc(C(N)=O)c1` [Compound 54, N-[2-(3-Carbamoylphenyl)propan-2-yl]-1-(5-fluoropentyl)-1H-indazole-3-carboxamide], for which the “CYP induction profile (in words)” value in data set [5] was “profile similar to that of 45”. For the same compound, the plasma levels in data set [6] is listed as below 30 ng/mL. At hCB1 receptor [1], the EC50 came to 84 ± 6 nM. For the same compound, in “Human liver microsome”, the half-life at 1 μM is 1.02 h and the microsomal CLint at 1 μM was determined as 10 µL/min/mg.
Consider `CC(C)(NC(=O)c1nn(Cc2ccc(F)cc2)c2ccccc12)C1CCCN(C(N)=O)C1` (stereo not drawn) [Compound 31, N-[2-(1-Carbamoylpiperidin-3-yl)propan-2-yl]-1-[(4-fluorophenyl)methyl]-1H-indazole-3-carboxamide], for which the half-life at 1 μM in the data set “Human liver microsome” was found to be 0.433 h. Moreover, the Ki turned out to be 27 nM at hCB2 receptor [2] and 49 nM at hCB1 receptor [3]. Moreover, the EC50 on hCB2 receptor [4] worked out at 29 ± 4 nM.
As for `CC(C)(NC(=O)c1nn(CC2CCCC2)c2ccccc12)c1cccc(C(N)=O)c1` [Compound 48, N-[2-(3-Carbamoylphenyl)propan-2-yl]-1-(cyclopentylmethyl)-1H-indazole-3-carboxamide], the EC50 on hCB1 receptor [1] came out at 893 ± 192 nM. For the same compound, in “Human liver microsome”, the half-life at 1 μM is 0.367 h and the intrinsic metabolic clearance (microsomal CLint) at 1 μM was determined as 58 µL/min/mg. In addition, the 50% effective concentration (EC50) at hCB2 receptor [4] was 613 ± 351 nM.
On the same counts, the results for `CC(C)(NC(=O)c1nn(CCCCC(F)(F)F)c2ccccc12)c1cccc(C(N)=O)c1` [Compound 55, N-[2-(3-Carbamoylphenyl)propan-2-yl]-1-(5,5,5-trifluoropentyl)-1H-indazole-3-carboxamide] are 156 ± 35 nM, 1.7 h, 6 µL/min/mg and 341 ± 145 nM.
For the compound `CCCCCn1nc(C(=O)NC(C)(C)c2cccc(C(N)=O)c2)c2ccccc21` [Compound 52, N-[2-(3-Carbamoylphenyl)propan-2-yl]-1-pentyl-1H-indazole-3-carboxamide], at hCB1 receptor [1], the EC50 amounted to 202 ± 16 nM. In “Human liver microsome”, this compound gave a half-life at 1 μM of 0.533 h and an intrinsic metabolic clearance (microsomal CLint) at 1 μM of 19 µL/min/mg. Besides, the EC50 on hCB2 receptor [4] came out at 175 ± 32 nM.
On to `COCCCn1nc(C(=O)NC(C)(C)c2cccc(C(N)=O)c2)c2ccccc21` [Compound 59, N-[2-(3-Carbamoylphenyl)propan-2-yl]-1-(3-methoxypropyl)-1H-indazole-3-carboxamide], for which the EC50 at hCB1 receptor [1] was above 10000 nM; at hCB2 receptor [4], 2560 ± 492 nM.
The matching figures for `CC(C)(NC(=O)c1nn(Cc2ccc(F)cc2)c2ccccc12)C(N)=O` [Compound 10, 2-({1-[(4-Fluorophenyl)methyl]-1H-indazol-3-yl}formamido)-2-methylpropanamide]: above 10000 nM and 477 ± 142 nM.
Consider `CC(F)(F)CCCn1nc(C(=O)NC(C)(C)c2cccc(C(N)=O)c2)c2ccccc21` [Compound 53, N-[2-(3-Carbamoylphenyl)propan-2-yl]-1-(4,4-difluoropentyl)-1H-indazole-3-carboxamide], for which the EC50 on hCB1 receptor [1] is 463 ± 187 nM; on hCB2 receptor [4], 3420 ± 151 nM. The same compound displayed a half-life at 1 μM in the data set “Human liver microsome” of 2.67 h. Besides, the microsomal CLint at 1 μM in the data set “Human liver microsome” came out at 7.9 µL/min/mg. The Ki came out at 75 nM on hCB2 receptor [2] and 54 nM at hCB1 receptor [3].
Consider `CC(C)(NC(=O)c1nn(Cc2ccc(F)cc2)c2ccccc12)C(=O)Nc1cccc(C(N)=O)c1` [Compound 12, 3-[2-({1-[(4-Fluorophenyl)methyl]-1H-indazol-3-yl}formamido)-2-methylpropanamido]benzamide], for which the figures for the EC50 at hCB1 receptor [1] and at hCB2 receptor [4] were 360 ± 88 nM and 360 ± 48 nM, respectively.
For `NC(=O)CN1CCC[C@@H](NC(=O)c2nn(Cc3ccc(F)cc3)c3ccccc23)C1` [Compound 41, N-[(3R)-1-(Carbamoylmethyl)piperidin-3-yl]-1-[(4-fluorophenyl)methyl]-1H-indazole-3-carboxamide], the EC50 came out at 803 ± 73 nM on hCB1 receptor [1] and 33 ± 1 nM at hCB2 receptor [4].
As to `NC(=O)c1cccc(C2(NC(=O)c3nn(Cc4ccc(F)cc4)c4ccccc34)CC2)c1` [Compound 27, N-[1-(3-Carbamoylphenyl)cyclopropyl]-1-[(4-fluorophenyl)methyl]-1H-indazole-3-carboxamide], the figures for the concentration giving a half-maximal response (EC50) at hCB1 receptor [1] and on hCB2 receptor [4] were 2740 ± 939 nM and 96 ± 6 nM, respectively.
On the same counts, the results for `NC(=O)[C@@H](NC(=O)c1nn(Cc2ccc(F)cc2)c2ccccc12)c1ccccc1` [Compound 7, (2S)-2-({1-[(4-Fluorophenyl)methyl]-1H-indazol-3-yl}formamido)-2-phenylacetamide] are 178 ± 55 nM and 42 ± 9 nM.
In the case of `CC(C)(NC(=O)c1nn(Cc2ccc(C#N)cc2)c2ccccc12)c1cccc(C(N)=O)c1` [Compound 44, N-[2-(3-Carbamoylphenyl)propan-2-yl]-1-[(4-cyanophenyl)methyl]-1H-indazole-3-carboxamide], on hCB1 receptor [1], the EC50 was determined as 234 ± 154 nM. In the data set “Human liver microsome”, the half-life at 1 μM was above 3.33 h and the microsomal CLint at 1 μM is below 5 µL/min/mg. The EC50 at hCB2 receptor [4] is above 10000 nM.
As to `CC(C)(NC(=O)c1nn(CCCCC#N)c2ccccc12)c1cccc(C(N)=O)c1` [Compound 56, N-[2-(3-Carbamoylphenyl)propan-2-yl]-1-(4-cyanobutyl)-1H-indazole-3-carboxamide], on hCB1 receptor [1], the EC50 amounted to 731 ± 161 nM. Besides, in the data set “Human liver microsome”, the half-life at 1 μM was 3 h and the microsomal CLint at 1 μM was 7 µL/min/mg. Besides, at hCB2 receptor [4], the EC50 turned out to be 760 ± 175 nM.
On to `CC(C)(NC(=O)c1nn(CCc2ccc(F)cc2)c2ccccc12)c1cccc(C(N)=O)c1` [Compound 46, N-[2-(3-Carbamoylphenyl)propan-2-yl]-1-[2-(4-fluorophenyl)ethyl]-1H-indazole-3-carboxamide], for which the EC50 on hCB1 receptor [1] and at hCB2 receptor [4] was above 10000 nM each time.
For `CN(CC(N)=O)C(=O)C(C)(C)NC(=O)c1nn(Cc2ccc(F)cc2)c2ccccc12` [Compound 13, N-(Carbamoylmethyl)-2-({1-[(4-fluorophenyl)methyl]-1H-indazol-3-yl}formamido)-N,2-dimethylpropanamide], the EC50 at hCB1 receptor [1] turned out to be 282 ± 73 nM; on hCB2 receptor [4] it was 74 ± 19 nM.
